Patent US20090306015A1, “PHARMACEUTICAL COMPOSITIONS AND METHODS OF USE OF HIGHLY LIPOPHILIC SULFHYDRYL COMPOUNDS” (Silamed, Inc., priority 2005, published 2009)
Read-outs that look alike come from different tables or passages of the source.

What was measured:
Type in all cases: cell-based
[1] = test system: human MD-MBA-231 breast cancer cells; assay: CellTiter-Blue cell viability, concurrent combination treatment with doxorubicin; conditions: for 72 Hours IC10 Doxorubicin / 96 Hours IC10 Doxorubicin: concurrent combination with IC10 of Adriamycin (doxorubicin); for 72 Hours IC30 Doxorubicin / 96 Hours IC30 Doxorubicin: concurrent combination with IC30 of Adriamycin (doxorubicin)
Description: (§1) CellTiter-Blue® Reagent Method: Following incubation with test compounds for 72 or 96 hours, human MD-MBA-231 breast cancer cells were briefly washed, […] stained with the CellTiter-Blue® Reagent resazurin. Resazurin measures the metabolic capacity of cells, an indicator of cell viability. Viable cells retain the ability to reduce resazurin into resorufin, that is highly fluorescent. […] This test measures the degree of cytotoxicity caused by the test material. IC50 determination: Data are expressed as the percentage of survival of the untreated (vehicle) control calculated from the fluorescence corrected for background absorbance. The surviving fraction of cells were determined by dividing the mean fluorescence values of the test agents by the mean fluorescence values of untreated control. The inhibitory concentration value for the test agent(s) and control were estimated using Prism 4 software (GraphPad Software, Inc.) by curve-fitting the data using the non-linear regression analysis. In some instances IC50 values could not be extrapolated and these are marked (*). Compounds of the invention were tested as monotherapy and results presented in TABLE 1 Compounds of the invention were tested in combination with inhibitory concentration 30% and 10% (IC30/IC10) of Adriamycin (doxorubicin) and results presented in TABLE 2

[2] = test system: human MD-MBA-231 breast cancer cells; assay: CellTiter-Blue cell viability, monotherapy
Description: as §1, with “(*).” for “(*). Compounds of the invention were tested as monotherapy and results presented in TABLE 1 Compounds of the invention were tested in combination with inhibitory concentration 30% and 10% (IC30/IC10) of Adriamycin (doxorubicin) and results presented in TABLE 2”

[3] = test system: human MD-MBA-231 breast cancer cells; assay: CellTiter-Blue cell viability, 6-hour pretreatment before doxorubicin administration; conditions: for 72 Hours IC10 Doxorubicin / 96 Hours IC10 Doxorubicin: 6-hour pretreatment with compound before IC10 doxorubicin; for 72 Hours IC30 Doxorubicin / 96 Hours IC30 Doxorubicin: 6-hour pretreatment with compound before IC30 doxorubicin
Description: as §1, with “(doxorubicin) following 6 hours of pretreatment with example compounds” for “(doxorubicin)”, “TABLE 3” for “TABLE 2”

[4] = 72 hours incubation, read-out: 72 Hours Treatment IC50
[5] = 96 hours incubation, read-out: 96 Hours Treatment IC50

| SMILES | 72 Hours IC10 Doxorubicin [1] | 96 Hours IC10 Doxorubicin [1] | 72 Hours IC30 Doxorubicin [1] | 96 Hours IC30 Doxorubicin [1] | IC50 [2, 4] | IC50 [2, 5] | 72 Hours IC10 Doxorubicin [3] | 96 Hours IC10 Doxorubicin [3] | 72 Hours IC30 Doxorubicin [3] | 96 Hours IC30 Doxorubicin [3] |
| --- | --- | --- | --- | --- | --- | --- | --- | --- | --- | --- |
| CC(=O)N[C@@H](CS)C(=O)NCCC[Si](C)(C)C [Eample 1, (R)-2-acetamido-3-mercapto-N-(3-(trimethylsilyl)propyl)propanamide] | 7.49 µM | 6.703 µM | 29.67 µM | 26.70 µM | 21.6 µM | 18.8 µM | 27.13 µM | 34.20 µM | 10.04 µM | 2.162 µM |
| CC(=O)N[C@@H](CS)C(=O)NC[Si](C)(C)C [Example 2, (R)-2-acetamido-3-mercapto-N-((trimethylsilyl)methyl)propanamide] | 49.42 µM | 34.55 µM | 269.0 µM | – | 132 µM | 136 µM | 210.70 µM | – | 56.64 µM | 14.68 µM |
| CC(=O)N[C@@H](CS)C(=O)NC[Si](C)(C)c1ccccc1 [Example 3, (R)-2-acetamido-N-((dimethyl(phenyl)silyl)methyl)-3-mercaptopropanamide] | 8.553 µM | 9.479 µM | 39.29 µM | 30.63 µM | 28.1 µM | 24.3 µM | 35.69 µM | 37.88 µM | 11.21 µM | 3.799 µM |
| CC(=O)N[C@@H](CS)C(=O)O [N-Acetyl-L-Cysteine, reference compound] | 129.70 µM | – | 639.30 µM | 925.2 µM | 277 µM | – | 499.10 µM | 454.10 µM | – | – |
